Results taken from paper PMC5218480 (PLoS ONE, 2017).

System: MV-4-11 cells
Test: Gene expression microarray analysis (Affymetrix PrimeView) and GSEA
Type: cell-based, human
Set-up: RFU PODN (11730768_x_at) / Fold change /veh PODN (11730768_x_at) / RFU LINC00158 (11744669_a_at) / Fold change /veh LINC00158 (11744669_a_at) / RFU DUSP10 (11751237_a_at) / Fold change /veh DUSP10 (11751237_a_at) / RFU ID3 (11757404_x_at) / Fold change /veh ID3 (11757404_x_at) / RFU PLEKHG5 (11737974_s_at) / Fold change /veh PLEKHG5 (11737974_s_at) / RFU LRRC4B (11730491_at) / Fold change /veh LRRC4B (11730491_at) / RFU GIMAP4 (11747438_a_at) / Fold change /veh GIMAP4 (11747438_a_at) / RFU KRT8 (11758183_x_at) / Fold change /veh KRT8 (11758183_x_at) / RFU CNN1 (11734310_a_at) / Fold change /veh CNN1 (11734310_a_at) / RFU VPS37D (11726825_at) / Fold change /veh VPS37D (11726825_at) / RFU C10orf10 (11716522_x_at) / Fold change /veh C10orf10 (11716522_x_at) / RFU KIR2DL2 /// KIR2DL4 /// KIR2DL5A /// KIR2DL5B /// KIR2DS1 /// KIR2DS2 /// KIR2DS3 /// KIR2DS4 /// KIR3DL3 /// KIR3DL3 /// KIR3DS1 (11738374_at) / Fold change /veh KIR2DL2 /// KIR2DL4 /// KIR2DL5A /// KIR2DL5B /// KIR2DS1 /// KIR2DS2 /// KIR2DS3 /// KIR2DS4 /// KIR3DL3 /// KIR3DL3 /// KIR3DS1 (11738374_at) / RFU C1QL1 (11718748_at) / Fold change /veh C1QL1 (11718748_at) / RFU TMPRSS4 (11747572_a_at) / Fold change /veh TMPRSS4 (11747572_a_at) / RFU HAMP (11756126_x_at) / Fold change /veh HAMP (11756126_x_at) / RFU RNFT2 (11725882_a_at) / Fold change /veh RNFT2 (11725882_a_at) / RFU NR4A2 (11747474_a_at) / Fold change /veh NR4A2 (11747474_a_at) / RFU ABCC12 (11746883_a_at) / Fold change /veh ABCC12 (11746883_a_at) / RFU TMEM136 (11760407_x_at) / Fold change /veh TMEM136 (11760407_x_at) / RFU CLDN22 /// WWC2 (11732394_at) / Fold change /veh CLDN22 /// WWC2 (11732394_at) / RFU HLA-DPB1 (11760878_x_at) / Fold change /veh HLA-DPB1 (11760878_x_at) / RFU SPINT1 (11716480_a_at) / Fold change /veh SPINT1 (11716480_a_at) / RFU GAP43 (11754022_s_at) / Fold change /veh GAP43 (11754022_s_at) / RFU A4GNT (11735810_at) / Fold change /veh A4GNT (11735810_at) / RFU PRB3 (11715151_x_at) / Fold change /veh PRB3 (11715151_x_at) / RFU TUBB4B (11761932_at) / Fold change /veh TUBB4B (11761932_at) / RFU CAPN14 (11732068_a_at) / Fold change /veh CAPN14 (11732068_a_at) / RFU TMCC2 (11721928_a_at) / Fold change /veh TMCC2 (11721928_a_at) / RFU IRGQ (11745062_a_at) / Fold change /veh IRGQ (11745062_a_at) / RFU FAM174B (11720279_a_at) / Fold change /veh FAM174B (11720279_a_at) / RFU TMPRSS4 (11748680_a_at) / Fold change /veh TMPRSS4 (11748680_a_at) / RFU FAM212B (11763350_a_at) / Fold change /veh FAM212B (11763350_a_at) / RFU PLEKHG5 (11743358_a_at) / Fold change /veh PLEKHG5 (11743358_a_at) / RFU ZSCAN30 (11745921_a_at) / Fold change /veh ZSCAN30 (11745921_a_at) / RFU CMKLR1 (11741424_a_at) / Fold change /veh CMKLR1 (11741424_a_at) / RFU LOC101060620 /// MAPK8IP1 (11723275_at) / Fold change /veh LOC101060620 /// MAPK8IP1 (11723275_at) / RFU SPTSSB (11747773_x_at) / Fold change /veh SPTSSB (11747773_x_at) / RFU PRSS12 (11739890_at) / Fold change /veh PRSS12 (11739890_at) / RFU BIN1 (11741810_x_at) / Fold change /veh BIN1 (11741810_x_at) / RFU WNT11 (11732464_a_at) / Fold change /veh WNT11 (11732464_a_at) / RFU C10orf10 (11716521_a_at) / Fold change /veh C10orf10 (11716521_a_at) / RFU C5orf56 (11738089_at) / Fold change /veh C5orf56 (11738089_at) / RFU CYB561 (11721691_x_at) / Fold change /veh CYB561 (11721691_x_at) / RFU ANKRD19P (11752326_a_at) / Fold change /veh ANKRD19P (11752326_a_at) / RFU OR2T12 /// OR2T33 /// OR2T8 (11738714_s_at) / Fold change /veh OR2T12 /// OR2T33 /// OR2T8 (11738714_s_at) / RFU VCAN (11748164_a_at) / Fold change /veh VCAN (11748164_a_at) / RFU JSRP1 (11732532_at) / Fold change /veh JSRP1 (11732532_at) / RFU KRTAP10-11 (11738290_x_at) / Fold change /veh KRTAP10-11 (11738290_x_at) / RFU MYO3A (11730013_a_at) / Fold change /veh MYO3A (11730013_a_at) / RFU EBF3 (11725865_a_at) / Fold change /veh EBF3 (11725865_a_at) / RFU CAMK2N1 (11719241_x_at) / Fold change /veh CAMK2N1 (11719241_x_at) / RFU C5orf56 (11738088_a_at) / Fold change /veh C5orf56 (11738088_a_at) / RFU OLFML3 (11715873_a_at) / Fold change /veh OLFML3 (11715873_a_at) / RFU LOC100653217 /// NTM (11731650_a_at) / Fold change /veh LOC100653217 /// NTM (11731650_a_at) / RFU MAPK11 (11762145_a_at) / Fold change /veh MAPK11 (11762145_a_at) / RFU FIZ1 (11724087_x_at) / Fold change /veh FIZ1 (11724087_x_at) / RFU OASL (11726364_x_at) / Fold change /veh OASL (11726364_x_at) / RFU SOX15 (11748057_x_at) / Fold change /veh SOX15 (11748057_x_at) / RFU CD79A (11719716_a_at) / Fold change /veh CD79A (11719716_a_at) / RFU HIST1H1D (11736915_at) / Fold change /veh HIST1H1D (11736915_at) / RFU CASKIN2 (11723855_a_at) / Fold change /veh CASKIN2 (11723855_a_at) / RFU LOC730098 (11760151_x_at) / Fold change /veh LOC730098 (11760151_x_at) / RFU OR4N2 (11742367_at) / Fold change /veh OR4N2 (11742367_at) / RFU PRRT2 (11749266_a_at) / Fold change /veh PRRT2 (11749266_a_at) / RFU SNX32 (11753110_a_at) / Fold change /veh SNX32 (11753110_a_at) / RFU CDHR5 (11726645_a_at) / Fold change /veh CDHR5 (11726645_a_at) / RFU RCAN1 (11760418_a_at) / Fold change /veh RCAN1 (11760418_a_at) / RFU FAM167A (11723789_a_at) / Fold change /veh FAM167A (11723789_a_at) / RFU FAM26E (11764081_at) / Fold change /veh FAM26E (11764081_at) / RFU ISYNA1 (11749810_s_at) / Fold change /veh ISYNA1 (11749810_s_at) / RFU ACY1 (11761880_at) / Fold change /veh ACY1 (11761880_at) / RFU 11764098_at / Fold change /veh 11764098_at / RFU SAMD14 (11745864_x_at) / Fold change /veh SAMD14 (11745864_x_at) / RFU NPB (11741838_a_at) / Fold change /veh NPB (11741838_a_at) / RFU TMPRSS6 (11731388_a_at) / Fold change /veh TMPRSS6 (11731388_a_at) / RFU KRTAP10-2 (11738614_at) / Fold change /veh KRTAP10-2 (11738614_at) / RFU ARHGAP8 /// PRR5-ARHGAP8 (11727945_x_at) / Fold change /veh ARHGAP8 /// PRR5-ARHGAP8 (11727945_x_at) / RFU KRTAP5-7 /// NADSYN1 (11734609_at) / Fold change /veh KRTAP5-7 /// NADSYN1 (11734609_at) / RFU RASL12 (11751679_a_at) / Fold change /veh RASL12 (11751679_a_at) / RFU CDKN2B (11736163_a_at) / Fold change /veh CDKN2B (11736163_a_at) / RFU PRF1 (11729649_at) / Fold change /veh PRF1 (11729649_at) / RFU, ZNF638 /// ZNF638-IT1 / Fold change vs veh, ZNF638 /// ZNF638-IT1 / RFU, PANK3 / Fold change vs veh, PANK3 / RFU, SH3YL1 / Fold change vs veh, SH3YL1 / RFU, ZEB2 / Fold change vs veh, ZEB2 / RFU, NRIP1 / Fold change vs veh, NRIP1 / RFU, PTTG1IP / Fold change vs veh, PTTG1IP / RFU, CAPN2 / Fold change vs veh, CAPN2 / RFU, MED14 / Fold change vs veh, MED14 / RFU, SNORA58 / Fold change vs veh, SNORA58 / RFU, C1orf63 / Fold change vs veh, C1orf63 / RFU, LRRFIP1 / Fold change vs veh, LRRFIP1 / RFU, NDUFAF7 / Fold change vs veh, NDUFAF7 / RFU, SLC12A2 / Fold change vs veh, SLC12A2 / RFU, IBTK / Fold change vs veh, IBTK / RFU, ESF1 / Fold change vs veh, ESF1 / Fold change vs veh, TMEM50B / RFU, TAOK1 / Fold change vs veh, TAOK1 / RFU, ACBD3 / Fold change vs veh, ACBD3 / RFU, TMA16 / Fold change vs veh, TMA16 / RFU, RWDD3 / Fold change vs veh, RWDD3 / RFU, BCAT1 / Fold change vs veh, BCAT1 / RFU, EDEM3 / Fold change vs veh, EDEM3 / RFU, TMEM33 / Fold change vs veh, TMEM33 / RFU, WDR75 / Fold change vs veh, WDR75 / RFU, AHCTF1 / Fold change vs veh, AHCTF1 / RFU, TFRC / Fold change vs veh, TFRC / RFU, ZDHHC17 / Fold change vs veh, ZDHHC17 / RFU, NOM1 / Fold change vs veh, NOM1 / RFU, ARL8B / Fold change vs veh, ARL8B / RFU, ZBTB11 / Fold change vs veh, ZBTB11 / RFU, TAMM41 / Fold change vs veh, TAMM41 / RFU, KIAA1704 /// LOC100996395 / Fold change vs veh, KIAA1704 /// LOC100996395 / RFU, ING1 / Fold change vs veh, ING1 / RFU, TRMT61B / Fold change vs veh, TRMT61B / RFU, FUBP3 / Fold change vs veh, FUBP3 / RFU, TP53 / Fold change vs veh, TP53 / RFU, TNKS2 / Fold change vs veh, TNKS2 / RFU, ZFP14 / Fold change vs veh, ZFP14 / RFU, ACTR2 / Fold change vs veh, ACTR2 / RFU, PPP3R1 / Fold change vs veh, PPP3R1 / RFU, PIK3R1 / Fold change vs veh, PIK3R1 / RFU, HNRNPA1 / Fold change vs veh, HNRNPA1 / RFU, RNF170 / Fold change vs veh, RNF170 / RFU, ZNF28 / Fold change vs veh, ZNF28 / RFU, RNGTT / Fold change vs veh, RNGTT / RFU, OGT / Fold change vs veh, OGT / RFU, BRD1 / Fold change vs veh, BRD1 / RFU, MARS / Fold change vs veh, MARS / RFU, ZNF655 / Fold change vs veh, ZNF655 / RFU, FAHD1 / Fold change vs veh, FAHD1 / RFU, BDP1 / Fold change vs veh, BDP1 / RFU, LRRCC1 / Fold change vs veh, LRRCC1 / RFU, ARID1A / Fold change vs veh, ARID1A / RFU, ZNF146 / Fold change vs veh, ZNF146 / RFU, ZNF330 / Fold change vs veh, ZNF330 / RFU, GPN3 / Fold change vs veh, GPN3 / RFU, C9orf123 / Fold change vs veh, C9orf123 / RFU, N4BP2L2 / Fold change vs veh, N4BP2L2 / RFU, ARFIP1 / Fold change vs veh, ARFIP1 / RFU, FAM179B / Fold change vs veh, FAM179B / RFU, BCL10 / Fold change vs veh, BCL10 / RFU, UHRF1BP1L / Fold change vs veh, UHRF1BP1L / RFU, BET1 / Fold change vs veh, BET1 / RFU, CNOT2 / Fold change vs veh, CNOT2 / RFU, ZNF268 / Fold change vs veh, ZNF268 / Fold change vs veh, ZNF507 / RFU, DGCR2 / Fold change vs veh, DGCR2 / RFU, WDSUB1 / Fold change vs veh, WDSUB1 / Fold change vs veh, HSP90B1 /// MIR3652 / RFU, ADSS / Fold change vs veh, ADSS / RFU, GK / Fold change vs veh, GK / RFU, ZNF148 / Fold change vs veh, ZNF148 / RFU, TAF9 / Fold change vs veh, TAF9 / RFU, SLC1A5 / Fold change vs veh, SLC1A5 / RFU, SLMO2 / Fold change vs veh, SLMO2 / RFU, ABCC4 / Fold change vs veh, ABCC4 / RFU, LOC101060439 /// RAP1B / Fold change vs veh, LOC101060439 /// RAP1B / RFU, RFX7 / Fold change vs veh, RFX7 / RFU, GTPBP10 / Fold change vs veh, GTPBP10 / RFU, CNEP1R1 / Fold change vs veh, CNEP1R1 / RFU, BIVM-ERCC5 /// ERCC5 / Fold change vs veh, BIVM-ERCC5 /// ERCC5 / RFU, ILF3 / Fold change vs veh, ILF3 / RFU 11762660_at / Fold change /veh 11762660_at / RFU VCAN (11757783_s_at) / Fold change /veh VCAN (11757783_s_at) / RFU DDX43 (11728927_at) / Fold change /veh DDX43 (11728927_at) / RFU KRT8 (11758188_x_at) / Fold change /veh KRT8 (11758188_x_at) / RFU NKD1 (11759106_at) / Fold change /veh NKD1 (11759106_at) / RFU SRD5A1 (11742802_a_at) / Fold change /veh SRD5A1 (11742802_a_at) / RFU TPSAB1 /// TPSB2 (11721975_s_at) / Fold change /veh TPSAB1 /// TPSB2 (11721975_s_at) / RFU GSTM3 (11746129_a_at) / Fold change /veh GSTM3 (11746129_a_at) / RFU IL23R (11737362_x_at) / Fold change /veh IL23R (11737362_x_at) / RFU TMEM51 (11727254_a_at) / Fold change /veh TMEM51 (11727254_a_at) / RFU PIWIL2 (11732686_x_at) / Fold change /veh PIWIL2 (11732686_x_at) / RFU ORM1 (11744905_x_at) / Fold change /veh ORM1 (11744905_x_at) / RFU CCDC152 (11743942_at) / Fold change /veh CCDC152 (11743942_at) / RFU ECM1 (11717891_a_at) / Fold change /veh ECM1 (11717891_a_at) / RFU IL23R (11748794_a_at) / Fold change /veh IL23R (11748794_a_at) / RFU TNFAIP8L3 (11732012_x_at) / Fold change /veh TNFAIP8L3 (11732012_x_at) / RFU MBOAT4 (11741988_at) / Fold change /veh MBOAT4 (11741988_at) / RFU 11764193_at / Fold change /veh 11764193_at / RFU TMEM53 (11763286_at) / Fold change /veh TMEM53 (11763286_at) / RFU MAGEB2 (11727129_at) / Fold change /veh MAGEB2 (11727129_at) / RFU TMEM200A (11744735_a_at) / Fold change /veh TMEM200A (11744735_a_at) / RFU CCDC152 (11751479_a_at) / Fold change /veh CCDC152 (11751479_a_at) / RFU FAM211A (11726209_a_at) / Fold change /veh FAM211A (11726209_a_at) / RFU RGS16 (11746705_a_at) / Fold change /veh RGS16 (11746705_a_at) / RFU VCAN (11755009_s_at) / Fold change /veh VCAN (11755009_s_at) / RFU RHOB (11743442_s_at) / Fold change /veh RHOB (11743442_s_at) / RFU RGS16 (11720943_a_at) / Fold change /veh RGS16 (11720943_a_at) / RFU RGS16 (11720944_at) / Fold change /veh RGS16 (11720944_at) / RFU, VPS4B / Fold change vs veh, VPS4B / RFU, CREB1 / Fold change vs veh, CREB1 / RFU, DNAJC13 / Fold change vs veh, DNAJC13 / RFU, GNAQ / Fold change vs veh, GNAQ / RFU, CDK5R1 / Fold change vs veh, CDK5R1 / RFU, ZRANB3 / Fold change vs veh, ZRANB3 / RFU, CUL4A / Fold change vs veh, CUL4A / RFU, CCNY / Fold change vs veh, CCNY / RFU, UFL1 / Fold change vs veh, UFL1 / RFU, COG3 / Fold change vs veh, COG3 / RFU, DIAPH2 / Fold change vs veh, DIAPH2 / RFU, SKA2 / Fold change vs veh, SKA2 / RFU, AFF3 / Fold change vs veh, AFF3 / RFU, LMF1 / Fold change vs veh, LMF1 / RFU, IPO11 / Fold change vs veh, IPO11 / RFU, DFFB / Fold change vs veh, DFFB / RFU, FOXP1 / Fold change vs veh, FOXP1 / RFU, CARD8 / Fold change vs veh, CARD8 / RFU, STRN3 / Fold change vs veh, STRN3 / RFU, ADK / Fold change vs veh, ADK / RFU, RASSF2 / Fold change vs veh, RASSF2 / RFU, WIPF1 / Fold change vs veh, WIPF1 / RFU, LARP1B / Fold change vs veh, LARP1B / RFU, RASA1 / Fold change vs veh, RASA1 / RFU, RB1 / Fold change vs veh, RB1 / RFU, PPFIA1 / Fold change vs veh, PPFIA1 / RFU, MAT2A / Fold change vs veh, MAT2A / RFU, CCT5 / Fold change vs veh, CCT5 / RFU, WDR92 / Fold change vs veh, WDR92 / RFU, CUX1 / Fold change vs veh, CUX1 / RFU, TTC7A / Fold change vs veh, TTC7A / RFU, TMEM135 / Fold change vs veh, TMEM135 / RFU, DEPTOR / Fold change vs veh, DEPTOR / RFU, CPM / Fold change vs veh, CPM / RFU, DNAJB6 / Fold change vs veh, DNAJB6 / RFU, CACNA2D3 / Fold change vs veh, CACNA2D3 / RFU, DTX4 / Fold change vs veh, DTX4 / RFU, TFCP2 / Fold change vs veh, TFCP2 / RFU, GMCL1 /// GMCL1P1 / Fold change vs veh, GMCL1 /// GMCL1P1 / RFU, AEBP2 / Fold change vs veh, AEBP2 / RFU, SNHG1 /// SNORD22 /// SNORD25 /// SNORD26 /// SNORD27 /// SNORD28 /// SNORD29 /// SNORD31 / Fold change vs veh, SNHG1 /// SNORD22 /// SNORD25 /// SNORD26 /// SNORD27 /// SNORD28 /// SNORD29 /// SNORD31 / Fold change (Aza/veh), C12orf56 (ProbeSet 11735607_a_at) / Fold change (ACY-1035/veh), C12orf56 (ProbeSet 11735607_a_at) / Fold change (Aza/veh), FGFR1OP (ProbeSet 11751329_s_at) / Fold change (ACY-1035/veh), FGFR1OP (ProbeSet 11751329_s_at) / Fold change (Aza/veh), VPS36 (ProbeSet 11739960_a_at) / Fold change (ACY-1035/veh), VPS36 (ProbeSet 11739960_a_at) / RFU SYPL1 (11715823_x_at) / Fold change /veh SYPL1 (11715823_x_at) / RFU IGFBP7 (11715501_s_at) / Fold change /veh IGFBP7 (11715501_s_at) / RFU REEP3 (11722064_at) / Fold change /veh REEP3 (11722064_at) / RFU IGLL1 (11728026_x_at) / Fold change /veh IGLL1 (11728026_x_at): dose or concentration left out as unconfirmed
Settings: MV-4-11 cells, 48 hours

For `Nc1ncn([C@@H]2O[C@H](CO)[C@@H](O)[C@H]2O)c(=O)n1` [azacitidine], the “Fold change /veh FIZ1 (11724087_x_at)” value was 1.09.
